In patent US20140205662A1, “SYSTEM AND METHOD FOR […] TIMED LOCAL […] OF A COMBINATION PHARMACEUTICAL PREPARATION FOR ORAL THERAPY” (The Research Foundation for The State University of New York, priority 2010, published 2014):

Test system: gingival fibroblasts
Experimental: To determine whether the co-administration of these two compounds was cytotoxic, the following experiments were carried out.

Row | Compound | cytotoxicity (in words) | relative cytotoxicity [mg/mL]
1 | C[C@H]1c2cccc(O)c2C(=O)C2=C(O)[C@]3(O)C(=O)C(C(N)=O)=C(O)[C@@H](N(C)C)[C@@H]3[C@@H](O)[C@@H]21 [doxycycline] | relatively increasing cytotoxicity with increasing concentration | 0 to 0.231
2 | CC(C(=O)O)c1ccc(-c2ccccc2)c(F)c1 (stereo not shown) [flurbiprofen] | relatively low cytotoxicity | 0 to 0.031
